± gives the expanded uncertainty stated by the source.
Key:
[1] = 101.33 kPa, Liquid, Vibrating tube method
[2] = activity coefficient (dimensionless); of the first substance listed, at infinite dilution; xn = mol fraction of the nth substance listed; conditions: 101 kPa, Liquid, Chromatography, x1 = 0

Structure (SMILES)	mass density ([1]; 293.15 K)	mass density ([1]; 303.15 K)	mass density ([1]; 313.15 K)	mass density ([1]; 323.15 K)	mass density ([1]; 333.15 K)	activity coefficient ([2]; 323.15 K)	activity coefficient ([2]; 333.15 K)	activity coefficient ([2]; 343.15 K)
CCCC[N+]1(C)CCCC1.O=S(=O)([N-]S(=O)(=O)C(F)(F)F)C(F)(F)F	1397.4 ± 0.6 kg/m3	1389.2 ± 0.6 kg/m3	1381.1 ± 0.6 kg/m3	1372.7 ± 0.6 kg/m3	1364.1 ± 0.6 kg/m3	–	–	–
ClC(Cl)Cl [trichloromethane] + CCC[N+]1(C)CCCC1.O=S(=O)([N-]S(=O)(=O)C(F)(F)F)C(F)(F)F	–	–	–	–	–	0.85 ± 0.05	0.91 ± 0.06	0.96 ± 0.06
CCC[N+]1(C)CCCC1.O=S(=O)([N-]S(=O)(=O)C(F)(F)F)C(F)(F)F	1430.1 ± 0.6 kg/m3	1421.8 ± 0.6 kg/m3	1412.8 ± 0.6 kg/m3	1403.8 ± 0.6 kg/m3	1394.4 ± 0.6 kg/m3	–	–	–
CCCC(C)=O [pentan-2-one] + CCCC[N+]1(C)CCCC1.O=S(=O)([N-]S(=O)(=O)C(F)(F)F)C(F)(F)F	–	–	–	–	–	0.8 ± 0.05	0.81 ± 0.05	0.82 ± 0.05

Source: the NIST ThermoML archive (doi:10.1021/je4001894)
